Source: patent US11331020B2 (TRUSTEES OF BOSTON UNIVERSITY, priority 2020, dated 2022)
Like-named read-outs stand apart in the source and are kept apart here.

What was measured:
NicA2 [1] = molecular target: T1, NicA2 (Pseudomonas putida, UniProt F8G0P2); assay type: biochemical, Pseudomonas putida S16; conditions: for effect on the response to nicotine: 200 μM nicotine solution added
T1 construct: poly-histidine; made in house; host or cells: E. coli BL21 (DE3)
Description: (§1) Chronoamperometric responses were recorded overtime, with a potential −0.2 V (versus Ag/AgCl). At the beginning of the experiment, 30 μL 1×DPBS was added to the biosensor, followed by an addition of 30 μL nicotine solution at predefined time point. To evaluate the selectivity of the sensor chronoamperometric responses to nicotine were measured in the presence of the common interferents at relevant physiological concentrations in sweat (see e.g., Table 4). Addition of 30 μL 200 μM nicotine solution to 30 μL mixture was performed at a predefined time point and the current was recorded over time. Similar experiments were performed to evaluate the selectivity of the sensor to cotinine. Current was recorded where 30 μL 200 μM nicotine solution was added to 30 μL cotinine solutions.
(§2) Chronoamperometric responses were recorded at −0.2 V vs. a Ag/AgCl reference electrode.

NicA2 [2] = molecular target: T2, NicA2 (Pseudomonas putida, UniProt F8G0P2, N462Y/W427Y); assay type: biochemical, Pseudomonas putida S16; conditions: FIG. 17C (N462Y/W427Y mutant), FIG. 10D
T2 construct: poly-histidine; made in house; host or cells: E. coli BL21 (DE3)
Description: as §1, §2

[3] = Activity of NicA2 mutants versus wild type NicA2; assay type: biochemical; conditions: compared to wild type and other NicA2 mutants
From the text: In some embodiments, the size of the working electrode is in the range of 5-8 π mm^2, or 8-10π mm^2, or 10-12π mm^2, or 12-15π mm^2, or greater than 15π mm^2.

T1 sequence (F8G0P2 39-482): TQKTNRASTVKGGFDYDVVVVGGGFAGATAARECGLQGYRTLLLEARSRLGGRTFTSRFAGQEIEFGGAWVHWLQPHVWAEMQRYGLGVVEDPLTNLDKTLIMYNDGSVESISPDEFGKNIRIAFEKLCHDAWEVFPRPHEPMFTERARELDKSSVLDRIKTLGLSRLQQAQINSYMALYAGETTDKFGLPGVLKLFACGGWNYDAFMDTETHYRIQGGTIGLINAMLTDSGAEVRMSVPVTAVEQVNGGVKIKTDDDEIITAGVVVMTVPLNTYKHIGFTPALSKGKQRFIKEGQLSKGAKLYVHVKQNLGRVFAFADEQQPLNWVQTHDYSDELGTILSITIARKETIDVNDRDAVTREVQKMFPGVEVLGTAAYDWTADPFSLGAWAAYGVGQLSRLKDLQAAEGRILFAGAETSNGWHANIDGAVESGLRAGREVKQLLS

Question: Which results are given for `c1cncc(C2=NCCC2)c1` [myosmine]?
Answer: reduction of signal (NicA2 [1]; added during a chronoamperometric experiment with nicotine): approximately 50%; response from the substance alone (NicA2 [1]; chronoamperometry, no nicotine): Minimal responses

Question: With `CN1C(=O)CC[C@H]1c1cccnc1` [cotinine] as the molecule, how does the “current produced by NicA2 with the analyte” value (NicA2 [2]) read?
Answer: did not produce a current

Question: And the “effect on the response to nicotine” value (NicA2 [1]; chronoamperometry)?
Answer: minimally affected the nicotine response

Question: And the “effect on the response to nicotine” value (NicA2 [1]; chronoamperometry, listed as Cotinine)?
Answer: minimal effect upon the nicotine response

B1: N462Y/W427Y: mutant NicA2 enzyme, SEQ ID NO: 4 (protein)
chain: MSDKTKTNEGFSRRSFIGSAAVVTAGVAGLGAIDAASATQKTNRASTVKGGFDYDVVVVGGGFAGATAARECGLQGYRTLLLEARSRLGGRTFTSRFAGQEIEFGGAWVHWLQPHVWAEMQRYGLGVVEDPLTNLDKTLIMYNDGSVESISPDEFGKNIRIAFEKLCHDAWEVFPRPHEPMFTERARELDKSSVLDRIKTLGLSRLQQAQINSYMALYAGETTDKFGLPGVLKLFACGGWNYDAFMDTETHYRIQGGTIGLINAMLTDSGAEVRMSVPVTAVEQVNGGVKIKTDDDEIITAGVVVMTVPLNTYKHIGFTPALSKGKQRFIKEGQLSKGAKLYVHVKQNLGRVFAFADEQQPLNWVQTHDYSDELGTILSITIARKETIDVNDRDAVTREVQKMFPGVEVLGTAAYDWTADPFSLGAYAAYGVGQLSRLKDLQAAEGRILFAGAETSNGWHAYIDGAVESGLRAGREVKQLLSLEHHHHHH
Question: Which “oxidation activity of NicA2 mutant” value [3] does the source give for B1 here?
Answer: increased oxidative activity
